Values of other authors, collected in patent US20190383817A1, “PREDICTING RESPONSE TO IMMUNOMODULATORY DRUGS (IMIDS) IN MULTIPLE MYELOMA PATIENTS” (SKYLINEDX B.V., priority 2016, published 2019).

Tests used:
CRBN = details: comparison among thalidomide, lenalidomide, pomalidomide
[1] = system: IKAROS transcription factors; details: compared with thalidomide
MM patients = details: compared against non-Bortezomib containing regimes such as VAD

In the case of `Nc1cccc2c1C(=O)N(C1CCC(=O)NC1=O)C2=O` (stereo not drawn) [pomalidomide, 4-Amino-2-(2,6-dioxopiperidin-3-yl)isoindole-1,3-dione], the “binding to CRBN” value (CRBN) is given as “bind similarly to CRBN” and the “efficiency at targeting IKAROS transcription factors for degradation by CRBN” value [1] is given as “more efficient”.

In the case of `CC(C)C[C@H](NC(=O)[C@H](Cc1ccccc1)NC(=O)c1cnccn1)B(O)O` [Bortezomib], the “Overall Survival (OS)” value (MM patients) is listed as “significantly prolonged” and the “Progression Free Survival (PFS)” value (MM patients) is listed as “significantly prolonged”.

In the case of `O=C1CCC(N2C(=O)c3ccccc3C2=O)C(=O)N1` (stereo not drawn) [thalidomide, 2-(2,6-dioxopiperidin-3-yl)-1H-isoindole-1,3(2H)-dione], the “binding to CRBN” value (CRBN) is given as “bind similarly to CRBN”.

For `Cc1cccc2c1C(=O)N(C1CCC(=O)NC1=O)C2=O` (stereo not drawn) [2-(2,6-dioxopiperidin-3-yl)-4-methylisoindoline-1,3-dione], the “efficiency at targeting IKAROS transcription factors for degradation by CRBN” value [1] is given as “more efficient”.
